Measured values: paper PMC7412561, “Conjugates of Chitosan and Calcium Alginate with Oligoproline and Oligohydroxyproline Derivatives for Potential Use in Regenerative Medicine” (Materials, 2020)
Non-standard residues stand in square brackets, D forms with d. Hyp = O=C(O)[C@@H]1C[C@@H](O)CN1

These substances were tested on endothelial cell line EA.hy 926 (assay: MTT test (cell metabolic activity / cytotoxicity)). Details: EA.h 926 cells incubated with peptide for 1 day and for 7 days; concentration range 10 μM to 10 mM; compared with Control− (medium only); five replicates, average.
Format: cell-based
Experimental: The endothelial cell line EA.hy 926 (ATCC, Manassas, VA, USA) was used. The MTT test was performed using endothelial cells of the EA.hy 926 line. The extracts (2 mg/mL) were incubated in DMEM (Corning) for 48 h at 37 °C. Cells were seeded into a 96-well plate with 1 × 10^4 cells per well and grown under standard conditions (37 °C, 5% CO2 in humid air). The next day, the medium was replaced with extracts. After 24 h of treatment, the culture medium was removed and replaced with the MTT solution (1 mg/mL, Sigma Aldrich, Poznan, Poland) and incubated for 2 h in an incubator. The MTT solution was then decanted and 100 µL of isopropanol (Sigma Aldrich, Poznan, Poland) was added to each well. Absorbance was measured at 570 nm and 650 nm for the reference using a microplate reader (Victor X4 Perkin Elmer, PerkinElmer, Inc. Waltham, MA, USA). Cells cultured for 48 h in DMEM were used as a negative control. As a positive control were used cells incubated for 24 h, followed by the addition of DMSO, which were then cultured for another 24 h. Three samples of each type were tested and the results were presented as a percentage of the negative control with the standard deviation. Statistical significance was assessed using one-way ANOVA analysis of variance. Values for which the value **p < 0.001, ** p < 0.01, *p < 0.05 were considered statistically significant.
All the peptides were also assessed in terms of their cytotoxicity against the endothelial cell line EA.h 926. No cytotoxicity was observed (Figure 6) both for incubating cells in the presence of peptides 1–5 for 1 day (Figure 6a) and for 7 days (Figure 6b). Cells cultured in medium without the addition of any substances or harmful agents were used as the Control^− (K^−), while cells treated with DMSO on the second day of incubation were used as the Control^+ (K^+). The dimethyl sulfoxide (DMSO) was added to a final concentration of 5%. An MTT test was used to assess the cytotoxicity of peptides 1–5. […] The tests were performed in the concentration range of 10 μM and 10 mM.
Figure 6 Results of cell metabolic activity by using 3-(4,5-dimethylthiazol-2-yl)-2,5-diphenyltetrazolium bromide (MTT test) of the endothelial cell line EA.h 926 cultured in the presence of peptides 1–5, panel (a)—cells incubated in the presence of peptides for 1 day, panel (b)—cells incubated in the presence of peptides for 7 days. Cytotoxicity tests were performed in five replicates. The presented results are average values. Statistical significance was assessed using one-way ANOVA analysis of variance. Values for which the value **p < 0.001, ** p < 0.01, *p < 0.05 were considered statistically significant (see Supplementary Materials, Figure S1).
In the final stage of the research, we studied the effects of covalently linked conjugates of peptides 2‒5 with chitosan and alginate (Figure 10) on the endothelial cell line EA.hy 926. Experiments were performed for incubation of cells for 1 day (Figure 10a) and 7 days (Figure 10b) to check the effect of alginate and chitosan conjugates with peptides 2‒5 both in the short and long term, which is important from the point of view of the usefulness of materials used in regenerative medicine. As the Control^‒ (K^‒) were again used cells cultured in the medium without the addition of any substances or any harmful factors, while as the Control^+ (K^+) were used cell cultures killed by adding DMSO on the second day of incubation. DMSO was added to give a 5% final concentration in the culture medium. Unmodified chitosan and calcium alginate were also studied. […] Cell viability relative to the […] was reduced by more than 75%. The adverse effect of calcium alginate on the endothelial cell line EA.hy 926 may result from the exchange of Ca^2+ ions from the polysaccharide matrix for monovalent Na^+ and/or K^+ ions, causing the release of large amounts of Ca^2+ ions into the culture medium. This in turn may adversely affect the endothelial cells. […]

| Substance | cytotoxic effect of peptides (MTT test) |
| --- | --- |
| H-(Pro)9-OH [Peptide 3] | No cytotoxic effect |
| H-(Hyp)9-OH [Peptide 5] | No cytotoxic effect |
| H-G[Hyp]PA[Hyp]P-OH (SMILES C[C@H](NC(=O)[C@@H]1CCCN1C(=O)[C@@H]1C[C@@H](O)CN1C(=O)CN)C(=O)N1C[C@H](O)C[C@H]1C(=O)N1CCC[C@H]1C(=O)O) [Peptide 1, model collagen fragment, reference compound] | No cytotoxic effect |
| H-(Pro)6-OH [Peptide 2] | No cytotoxic effect |
| H-(Hyp)6-OH [Peptide 4] | No cytotoxic effect |

Same assay, conditions: EA.h 926 cells; 10 mM peptide

| Substance | cytotoxicity at the highest tested concentration (MTT) |
| --- | --- |
| H-(Pro)9-OH [Peptide 3] | comparable toxicity to that at 100 μM |
